Data from patent US10894798B2, “Substituted dihydropyrrolopyrazole derivative” (UBE INDUSTRIES, LTD., priority 2015, dated 2021).

How the values were obtained:
Format in all cases: cell-based
[1] = test system: bladder cancer cell line T24; experiment: Various human cancer cell growth inhibition test: T24; conditions: ATPlite, read-out: GI50 value (concentration necessary for inhibiting 50% of cell growth)
From the text: (§1) A breast cancer cell line BT-549 (obtained from American Type Culture Collection (ATCC)), a uterus cancer cell line C-33A (obtained from ATCC), an ovary cancer cell line PA-1 (obtained from ATCC), a large-cell lung cancer cell line NCI-H460 (obtained from ATCC), a small-cell lung cancer cell line NCI-H82 (obtained from ATCC), a kidney cancer cell line ACHN (obtained from ATCC), a pancreatic cancer cell line BxPC-3 (obtained from ATCC), a malignant melanoma cell line A375 (obtained from ATCC), a throat cancer cell line FaDu (obtained from ATCC), a medulloblastoma cell line Daoy (obtained from ATCC), a cutaneous epithelioid sarcoma cell line VA-ES-BJ (obtained from ATCC), a rhabdomyosarcoma cell line A-204 (obtained from ATCC), a prostate cancer cell line DU145 (obtained from ATCC), a bladder cancer cell line T24 (obtained from ATCC), a lymphoma cell line SR (obtained from ATCC), a neuroblastoma cell line SH-SY5Y (obtained from DS Pharma Biomedical Co., Ltd.), a liver cancer cell line HepG2 (obtained from DS Pharma Biomedical Co., Ltd.), a stomach cancer cell line HGC-27 (obtained from DS Pharma Biomedical Co., Ltd.), and a multiple myeloma cell line NCI-H929 (obtained from DS Pharma Biomedical Co., Ltd.) were used as human cancer cell lines.
(§2) Each cell line was cultured in a cell culture medium recommended by ATCC or DS Pharma Biomedical Co., Ltd. and inoculated at 0.3 to 5.0×10^3 cells/well to a 96-well plate. The cells were cultured overnight in a carbon dioxide incubator of 37° C. containing 5% carbon dioxide. The medium was replaced with a fresh medium on the next day, then replaced with a mixed solution of a DMSO solution of a test compound with varying concentrations and a culture medium (final DMSO concentration: 0.1%), and left standing in a carbon dioxide incubator (day 0). IV-361, IV-379, IV-3, IV-215, IV-299, IV-669, IV-1049, and palbociclib (for comparison) were used as test compounds. For a control group, DMSO was added instead of the DMSO solution of the test compound to a cell culture medium (final DMSO concentration: 0.1%).
(§3) After culture for a predetermined period, the ATP activity of BT-549, C-33A, PA-1, NCI-H460, NCI-H82, ACHN, BxPC-3, A375, FaDu, Daoy, VA-ES-BJ, A-204, DU145, T24, and SR was measured by using ATPlite (manufactured by PerkinElmer, Inc.). The ATP activity of SH-SY5Y, HepG2, HGC-27, and NCI-H929 was measured by using CellTiter-Glo (manufactured by Promega Corp.).
(§4) The rate of inhibition of cell growth (%) was calculated according to the expression given below. Specifically, in the case where the difference between the ATP activity before culture (day 0) and the ATP activity after culture in the test compound-administered group is the same as the difference between the ATP activity before culture (day 0) and the ATP activity after culture in the control group, the rate of inhibition of cell growth is 0%. Rate of inhibition of cell growth=(1−((ATP activity of the test compound-administered group after culture)−(ATP activity of the test compound-administered group on day 0))/((ATP activity of the control group after culture)−(ATP activity of the control group on day 0)))×100
(§5) The concentration of the test compound necessary for inhibiting 50% of cell growth (GI50 value) was calculated by using EXSUS (version 8.1.0, manufactured by CAC Exicare Corp.).

[2] = test system: small-cell lung cancer cell line NCI-H82; experiment: Various human cancer cell growth inhibition test: NCI-H82; conditions: ATPlite, read-out: GI50 value (concentration necessary for inhibiting 50% of cell growth)
From the text: as §1, §2, §3, §4, §5

[3] = test system: liver cancer cell line HepG2; experiment: Various human cancer cell growth inhibition test: HepG2; conditions: CellTiter-Glo, read-out: GI50 value (concentration necessary for inhibiting 50% of cell growth)
From the text: as §1, §2, §3, §4, §5

[4] = test system: ovary cancer cell line PA-1; experiment: Various human cancer cell growth inhibition test: PA-1; conditions: ATPlite, read-out: GI50 value (concentration necessary for inhibiting 50% of cell growth)
From the text: as §1, §2, §3, §4, §5

[5] = test system: large-cell lung cancer cell line NCI-H460; experiment: Various human cancer cell growth inhibition test: NCI-H460; conditions: ATPlite, read-out: GI50 value (concentration necessary for inhibiting 50% of cell growth)
From the text: as §1, §2, §3, §4, §5

[6] = test system: pancreatic cancer cell line BxPC-3; experiment: Various human cancer cell growth inhibition test: BxPC-3; conditions: ATPlite, read-out: GI50 value (concentration necessary for inhibiting 50% of cell growth)
From the text: as §1, §2, §3, §4, §5

[7] = test system: cutaneous epithelioid sarcoma cell line VA-ES-BJ; experiment: Various human cancer cell growth inhibition test: VA-ES-BJ; conditions: ATPlite, read-out: GI50 value (concentration necessary for inhibiting 50% of cell growth)
From the text: as §1, §2, §3, §4, §5

[8] = test system: breast cancer cell line BT-549; experiment: Various human cancer cell growth inhibition test: BT-549; conditions: ATPlite, read-out: GI50 value (concentration necessary for inhibiting 50% of cell growth)
From the text: as §1, §2, §3, §4, §5

[9] = test system: multiple myeloma cell line NCI-H929; experiment: Various human cancer cell growth inhibition test: NCI-H929; conditions: CellTiter-Glo, read-out: GI50 value (concentration necessary for inhibiting 50% of cell growth)
From the text: as §1, §2, §3, §4, §5

[10] = test system: stomach cancer cell line HGC-27; experiment: Various human cancer cell growth inhibition test: HGC-27; conditions: CellTiter-Glo, read-out: GI50 value (concentration necessary for inhibiting 50% of cell growth)
From the text: as §1, §2, §3, §4, §5

[11] = test system: malignant melanoma cell line A375; experiment: Various human cancer cell growth inhibition test: A375; conditions: A-375, ATPlite, read-out: GI50 value (concentration necessary for inhibiting 50% of cell growth)
From the text: as §1, §2, §3, §4, §5

lymphoma cell line SR = experiment: Various human cancer cell growth inhibition test: SR; conditions: ATPlite, read-out: GI50 value (concentration necessary for inhibiting 50% of cell growth)
From the text: as §1, §2, §3, §4, §5

[12] = test system: kidney cancer cell line ACHN; experiment: Various human cancer cell growth inhibition test: ACHN; conditions: ATPlite, read-out: GI50 value (concentration necessary for inhibiting 50% of cell growth)
From the text: as §1, §2, §3, §4, §5

[13] = test system: Human keratinocytes (NHEK-Neo Pooled); experiment: Human keratinocyte growth inhibition assay; conditions: 48 h, culture for 2 days, Cell Counting Kit-8
Protocol: The measurement of a human keratinocyte growth inhibitory effect was carried out by modifying the method of Schafer et al. (British Journal of Pharmacology, 159, 842 (2011)).
Human keratinocytes (NHEK-Neo Pooled, manufactured by Lonza Group AG) were cultured in KGM-Gold keratinocyte growth medium Bullet Kit (manufactured by Lonza Group AG) and inoculated at 2×10^3 cells/well to a 96-well plate. After overnight culture in a carbon dioxide incubator, a test compound dissolved in DMSO (final DMSO concentration: 0.1%) was added thereto and left standing in a carbon dioxide incubator. After culture for 2 days, the absorbance thereof was measured by using Cell Counting Kit-8 (manufactured by Dojindo Laboratories).
as §5, with “The rate of inhibition of cell growth at each concentration was calculated from the test compound concentration and the absorbance of Cell Counting Kit-8, and the” for “The”

| GI50 [1] | GI50 [2] | GI50 [3] | GI50 [4] | GI50 [5] | GI50 [6] | GI50 [8] | GI50 [9] | GI50 [10] | GI50 [11] | GI50 (lymphoma cell line SR) | GI50 [12] | Structure (SMILES) | GI50 [7] | GI50 [13] |
| --- | --- | --- | --- | --- | --- | --- | --- | --- | --- | --- | --- | --- | --- | --- |
| < 300 nM | < 300 nM | 300 to 1000 nM | < 300 nM | < 300 nM | < 300 nM | < 300 nM | < 300 nM | < 300 nM | < 300 nM | < 300 nM | < 300 nM | CC1(C)c2[nH]nc(NC(=O)C3([Si](C)(C)C)CCC3)c2CN1C(=O)Nc1ccccc1F [IV-3, N-(2-Fluorophenyl)-6,6-dimethyl-3-[1-(trimethylsilyl)cyclobutanecarboxamido]-4,6-dihydropyrrolo[3,4-c]pyrazole-5(1H)-carboxamide] | < 300 nM |  |
|  |  |  |  |  |  |  |  |  |  |  |  | Cc1cccc(F)c1NC(=O)N1Cc2c(NC(=O)C3([Si](C)(C)C)CCC3)n[nH]c2C1(C)C [IV-129, N-(2-Fluoro-6-methylphenyl)-6,6-dimethyl-3-[1-(trimethylsilyl)cyclobutanecarboxamido]-4,6-dihydropyrrolo[3,4-c]pyrazole-5 (1H)-carboxamide] |  | ≤ 500 nM |
| < 300 nM | < 300 nM | < 300 nM | < 300 nM | < 300 nM | < 300 nM | < 300 nM | < 300 nM | < 300 nM | < 300 nM | < 300 nM | < 300 nM | Cc1cccc(Cl)c1NC(=O)N1Cc2c(NC(=O)C3([Si](C)(C)C)CCC3)n[nH]c2C1(C)C [IV-215, N-(2-Chloro-6-methylphenyl)-6,6-dimethyl-3-[1-(trimethylsilyl)cyclobutanecarboxamido]-4,6-dihydropyrrolo[3,4-c]pyrazole-5 (1H)-carboxamide] | < 300 nM | ≤ 500 nM |
|  |  |  |  |  |  |  |  |  |  |  |  | COc1cccc(Cl)c1NC(=O)N1Cc2c(NC(=O)C3([Si](C)(C)C)CCC3)n[nH]c2C1(C)C [IV-247, N-(2-Chloro-6-methoxyphenyl)-6,6-dimethyl-3-[1-(trimethylsilyl)cyclobutanecarboxamido]-4,6-dihydropyrrolo[3,4-c]pyrazole-5(1H)-carboxamide] |  | ≤ 500 nM |
